What was measured:
M. incognita [1] = assay: Egg hatching, laboratory test in sterile water; assay type: in vivo; details: M. incognita eggs; 0.025%, 0.05%, 0.1%; counts about every 72 h for 3-4 weeks
Source text: (§1) The aim of the protocol was to evaluate the nematicidal efficacy of the formulation and of the active ingredients, cinnamic aldehyde and terpene alcohol, separately. For this trial M. incognita and M. javanica nematodes were used.
(§2) • 1. Untreated control specimen: Eggs or juvenile nematodes in sterile water. • 2. Eggs or juveniles with 0.025% of the formulation in sterile water. • 3. Eggs or juveniles with 0.05% of the formulation in sterile water. • 4. Eggs or juveniles with 0.1% of the formulation in sterile water. • 5. Eggs or juveniles with 0.025% of terpene alcohol in sterile water plus innocuous solvent. • 6. Eggs or juveniles with 0.05% of terpene alcohol in sterile water plus innocuous solvent. • 7. Eggs or juveniles with 0.1% of terpene alcohol in sterile water plus innocuous solvent. • 8. Eggs or juveniles with 0.025% of cinnamic aldehyde in sterile water plus innocuous solvent. • 9. Eggs or juveniles with 0.05% of cinnamic aldehyde in sterile water plus innocuous solvent. • 10. Eggs or juveniles with 0.1% of cinnamic aldehyde in sterile water plus innocuous solvent. Results:
(§3) The treatments with juveniles hatched at 0 h, 24 h, 48 h and 72 h. The number of hatched eggs was determined approximately every 72 h for 3-4 weeks. […]

M. incognita [2] = assay: Juvenile (J2) mortality, laboratory test in sterile water; assay type: in vivo; details: all concentrations (0.025%, 0.05%, 0.1%), in less than 24 h
Source text: as §1, §2, §3

`O=C/C=C/c1ccccc1` [cinnamic aldehyde, (2E)-3-phenylprop-2-enal] was tested. Which egg hatching (M. incognita [1]) did it give?
The egg hatching was “inhibited the hatching of juveniles”.

And the “mortality of J2” value (M. incognita [2])?
The value was 100%.

— US12369578B2, “Use of a nematicide composition” (DESARROLLO AGRICOLA Y MINERO, S.A., priority 2019, dated 2025)
